Results taken from PubChem BioAssay AID1963966 (Molecular Pharmacology Branch, DTP, NCI, 2024).

Tested on: 935938-334-R-J1-PDC spheroids with HUVEC/MSC, viability
Assay: Anticancer human tumor 935938-334-R-J1-PDC patient-derived small intestine adenocarcinoma cell line growth inhibition [PI3K]
Conditions: for IC50: curve of first compound; for viability, T/C: stronger effect = lower value
Outline: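 Combination activity was assessed by viability in multicellular tumor spheroids carrying HUVEC and MSC components. Agents were tested with PI3K inhibitors from a Cmax-based top dose (or 10 microM) downward in half-log increments.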

[1] = second compound 0.00316 µM, first compound 0.0316 µM
[2] = second compound 0.00316 µM, first compound 0.1 µM
[3] = second compound 0.00316 µM, first compound 0.316 µM
[4] = second compound 0.00316 µM, first compound 1 µM
[5] = second compound 0.00316 µM, first compound 3.16 µM
[6] = second compound 0.00316 µM, first compound 10 µM
[7] = second compound 0.01 µM, first compound 0.0316 µM
[8] = second compound 0.01 µM, first compound 0.1 µM
[9] = second compound 0.01 µM, first compound 0.316 µM
[10] = second compound 0.01 µM, first compound 1 µM
[11] = second compound 0.01 µM, first compound 3.16 µM
[12] = second compound 0.01 µM, first compound 10 µM
[13] = second compound 0.0316 µM, first compound 0.0316 µM
[14] = second compound 0.0316 µM, first compound 0.1 µM
[15] = second compound 0.0316 µM, first compound 0.316 µM
[16] = second compound 0.0316 µM, first compound 1 µM
[17] = second compound 0.0316 µM, first compound 3.16 µM
[18] = second compound 0.0316 µM, first compound 10 µM
[19] = second compound 0.1 µM, first compound 0.0316 µM
[20] = second compound 0.1 µM, first compound 0.1 µM
[21] = second compound 0.1 µM, first compound 0.316 µM
[22] = second compound 0.1 µM, first compound 1 µM
[23] = second compound 0.1 µM, first compound 3.16 µM
[24] = second compound 0.1 µM, first compound 10 µM
[25] = second compound 0.316 µM, first compound 0.0316 µM
[26] = second compound 0.316 µM, first compound 0.1 µM
[27] = second compound 0.316 µM, first compound 0.316 µM
[28] = second compound 0.316 µM, first compound 1 µM
[29] = second compound 0.316 µM, first compound 3.16 µM
[30] = second compound 0.316 µM, first compound 10 µM
[31] = second compound 1 µM, first compound 0.0316 µM
[32] = second compound 1 µM, first compound 0.1 µM
[33] = second compound 1 µM, first compound 0.316 µM
[34] = second compound 1 µM, first compound 1 µM
[35] = second compound 1 µM, first compound 3.16 µM
[36] = second compound 1 µM, first compound 10 µM
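Also: compound exposure lasted seven days before viability was read.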
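For viability, T/C in this document: percent of vehicle DMSO treated spheroid viability so 100% = untreated.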

CC(C)NCC(C(=O)N1CCN(c2ncnc3c2C(C)CC3O)CC1)c1ccc(Cl)cc1 (stereo not drawn) + CC(Nc1ccc2c(c1)OCCn1cc(N3C(=O)OCC3C(F)F)nc1-2)C(N)=O
IC50 (second compound 0.00316 µM): 1690 nM
IC50 (second compound 0.01 µM): 3320 nM
IC50 (second compound 0.0316 µM): 811 nM
IC50 (second compound 0.1 µM): 651 nM
IC50 (second compound 0.316 µM): 724 nM
IC50 (second compound 1 µM): 328 nM
viability, T/C [1]: 76.6%
viability, T/C [2]: 96.7%
viability, T/C [3]: 77.9%
viability, T/C [4]: 58%
viability, T/C [5]: 41.5%
viability, T/C [6]: 36.1%
viability, T/C [7]: 47.5%
viability, T/C [8]: 75.7%
viability, T/C [9]: 85%
viability, T/C [10]: 65.4%
viability, T/C [11]: 51.1%
viability, T/C [12]: 28.6%
viability, T/C [13]: 53.1%
viability, T/C [14]: 76.5%
viability, T/C [15]: 65.5%
viability, T/C [16]: 46.5%
viability, T/C [17]: 35.3%
viability, T/C [18]: 30%
viability, T/C [19]: 94.9%
viability, T/C [20]: 84.1%
viability, T/C [21]: 56.1%
viability, T/C [22]: 44%
viability, T/C [23]: 44%
viability, T/C [24]: 28.3%
viability, T/C [25]: 55.5%
viability, T/C [26]: 75.7%
viability, T/C [27]: 68.3%
viability, T/C [28]: 43.6%
viability, T/C [29]: 23.4%
viability, T/C [30]: 24.8%
viability, T/C [31]: 35.1%
viability, T/C [32]: 52.9%
viability, T/C [33]: 63.5%
viability, T/C [34]: 34.1%
viability, T/C [35]: 19.8%
viability, T/C [36]: 28.6%

CCN1CCN(Cc2ccc(Nc3ncc(F)c(-c4cc(F)c5nc(C)n(C(C)C)c5c4)n3)nc2)CC1 + CC(Nc1ccc2c(c1)OCCn1cc(N3C(=O)OCC3C(F)F)nc1-2)C(N)=O
IC50 (second compound 0.00316 µM): 126 nM
IC50 (second compound 0.01 µM): 168 nM
IC50 (second compound 0.0316 µM): 46.3 nM
IC50 (second compound 0.1 µM): < 3.16 nM
IC50 (second compound 0.316 µM): 32.3 nM
IC50 (second compound 1 µM): < 3.16 nM
viability, T/C (second compound 0.00316 µM, first compound 0.00316 µM): 60.1%
viability, T/C (second compound 0.00316 µM, first compound 0.01 µM): 67.3%
viability, T/C [1]: 66%
viability, T/C [2]: 49.8%
viability, T/C [3]: 37.6%
viability, T/C [4]: 18.1%
viability, T/C (second compound 0.01 µM, first compound 0.00316 µM): 59.6%
viability, T/C (second compound 0.01 µM, first compound 0.01 µM): 58%
viability, T/C [7]: 65%
viability, T/C [8]: 64.4%
viability, T/C [9]: 35.6%
viability, T/C [10]: 15.5%
viability, T/C (second compound 0.0316 µM, first compound 0.00316 µM): 83.7%
viability, T/C (second compound 0.0316 µM, first compound 0.01 µM): 68.3%
viability, T/C [13]: 56.8%
viability, T/C [14]: 39%
viability, T/C [15]: 28.8%
viability, T/C [16]: 19.6%
viability, T/C (second compound 0.1 µM, first compound 0.00316 µM): 42.6%
viability, T/C (second compound 0.1 µM, first compound 0.01 µM): 55.9%
viability, T/C [19]: 51.3%
viability, T/C [20]: 45.1%
viability, T/C [21]: 28.9%
viability, T/C [22]: 16.2%
viability, T/C (second compound 0.316 µM, first compound 0.00316 µM): 43%
viability, T/C (second compound 0.316 µM, first compound 0.01 µM): 51.5%
viability, T/C [25]: 56%
viability, T/C [26]: 26.8%
viability, T/C [27]: 23.3%
viability, T/C [28]: 14.7%
viability, T/C (second compound 1 µM, first compound 0.00316 µM): 44.3%
viability, T/C (second compound 1 µM, first compound 0.01 µM): 38%
viability, T/C [31]: 50.3%
viability, T/C [32]: 25.4%
viability, T/C [33]: 22.3%
viability, T/C [34]: 20.6%

Cn1ncc(Cl)c1-c1cc(C(=O)NC(CN)Cc2cccc(F)c2)sc1Cl (stereo not drawn) + CC(Nc1ccc2c(c1)OCCn1cc(N3C(=O)OCC3C(F)F)nc1-2)C(N)=O
IC50 (second compound 0.00316 µM): > 10000 nM
IC50 (second compound 0.01 µM): > 10000 nM
IC50 (second compound 0.0316 µM): > 10000 nM
IC50 (second compound 0.1 µM): 761 nM
IC50 (second compound 0.316 µM): 261 nM
IC50 (second compound 1 µM): < 31.6 nM
viability, T/C [1]: 107%
viability, T/C [2]: 69%
viability, T/C [3]: 60.8%
viability, T/C [4]: 57.9%
viability, T/C [5]: 56.5%
viability, T/C [6]: 116%
viability, T/C [7]: 104%
viability, T/C [8]: 79.4%
viability, T/C [9]: 53%
viability, T/C [10]: 72.8%
viability, T/C [11]: 40.9%
viability, T/C [12]: 99.8%
viability, T/C [13]: 102%
viability, T/C [14]: 73.2%
viability, T/C [15]: 56.7%
viability, T/C [16]: 49.2%
viability, T/C [17]: 35.9%
viability, T/C [18]: 86%
viability, T/C [19]: 80.6%
viability, T/C [20]: 74.7%
viability, T/C [21]: 55.5%
viability, T/C [22]: 39.1%
viability, T/C [23]: 32.5%
viability, T/C [24]: 72.8%
viability, T/C [25]: 70.9%
viability, T/C [26]: 65.5%
viability, T/C [27]: 47.1%
viability, T/C [28]: 41%
viability, T/C [29]: 28.1%
viability, T/C [30]: 55.7%
viability, T/C [31]: 56.7%
viability, T/C [32]: 51.1%
viability, T/C [33]: 43.3%
viability, T/C [34]: 31.4%
viability, T/C [35]: 39%
viability, T/C [36]: 72.4%

Cn1nccc1Nc1nccc(-c2ccn(C(CO)c3ccc(Cl)c(F)c3)c(=O)c2)n1 (stereo not drawn) + CC(Nc1ccc2c(c1)OCCn1cc(N3C(=O)OCC3C(F)F)nc1-2)C(N)=O
IC50 (second compound 0.00316 µM): 1400 nM
IC50 (second compound 0.01 µM): 835 nM
IC50 (second compound 0.0316 µM): 1430 nM
IC50 (second compound 0.1 µM): 777 nM
IC50 (second compound 0.316 µM): 505 nM
IC50 (second compound 1 µM): 147 nM
viability, T/C [1]: 101%
viability, T/C [2]: 92.6%
viability, T/C [3]: 70.6%
viability, T/C [4]: 57.2%
viability, T/C [5]: 37.5%
viability, T/C [6]: 37%
viability, T/C [7]: 99.9%
viability, T/C [8]: 82.1%
viability, T/C [9]: 73.8%
viability, T/C [10]: 41.4%
viability, T/C [11]: 38.9%
viability, T/C [12]: 33.7%
viability, T/C [13]: 108%
viability, T/C [14]: 81.9%
viability, T/C [15]: 66%
viability, T/C [16]: 59.5%
viability, T/C [17]: 38.8%
viability, T/C [18]: 31.4%
viability, T/C [19]: 87.6%
viability, T/C [20]: 71.7%
viability, T/C [21]: 63.8%
viability, T/C [22]: 48.6%
viability, T/C [23]: 30.3%
viability, T/C [24]: 25.8%
viability, T/C [25]: 86.5%
viability, T/C [26]: 71.2%
viability, T/C [27]: 53%
viability, T/C [28]: 44.7%
viability, T/C [29]: 29.7%
viability, T/C [30]: 21.6%
viability, T/C [31]: 70.3%
viability, T/C [32]: 55.1%
viability, T/C [33]: 39.5%
viability, T/C [34]: 30.1%
viability, T/C [35]: 23.2%
viability, T/C [36]: 23.4%
